Data: patent US6071709A, “Nerve growth factor/receptor complex” (The United States of America as represented by the …, priority 1992, dated 2000)
“Also recorded” adds a separate entry of the source.

What was measured:
p140^prototrk [1] = experiment: NGF-dependent trk tyrosine phosphorylation in LA-N-5 neuroblastoma cells; type: cell-based, human; conditions: LA-N-5 cells, 100 ng/ml NGF for 5 min
Excerpt: (§1) FIGS. 4A-B show NGF-dependent tyrosine phosphorylation of gp140trk in the human neuroblastoma cell lines LA-N-5, SY5Y, and dorsal root ganglia from mouse embryos. FIG. 4A, gp140trk was immunoprecipitated from untreated (-) or NGF treated (+) LA-N-5 cells (K. H. Sonnenfeld and D. N. Ishii, J. Neurosci. Res. 8:375-391 (1982)), SY5Y cells (K. H. Sonnenfeld and D. N. Ishii, (1982)), NR18 cells (M. A. Bothwell et al., Cell 21:857-866 (1980)), or PC12 cells. Immunoprecipitates were probed with P-tyr antibodies. The differences in trk protein mobilities are due to differences in glycosylation. FIG. 4B, Tyrosine phosphorylation of gp140trk in DRGs from 13.5 day or 14.5 day embryonic mice. DRGs were maintained in 100 ng/ml NGF for ≥10 min prior to lysis and immunoprecipitation with trk antibodies. trk immunoprecipitates were probed with P-tyr antibody. Tyrosine phosphorylated gp140trk from NGF-treated (+) PC12 cells or untreated (-) PC12 cells is shown for comparison. Samples were normalized for cell protein. Molecular weight markers in kDa are indicated.
(§2) Cell lines were treated with 100 ng/ml NGF for 5 min and gp140trk immunoprecipitated as in FIG. 1. DRGs were prepared by dissection for 13.5 or 14.5 day mouse embryos. […] Lysates were immunoprecipitated with trk antibody and the trk proteins were analyzed by antiphosphotyrosine immunoblots. […]

p140^prototrk [2] = experiment: NGF-dependent trk tyrosine phosphorylation in SY5Y cells; type: cell-based, human; conditions: 100 ng/ml NGF for 5 min
Excerpt: as §1, §2

gp140^prototrk = biological target: T1, gp140^prototrk (Rattus norvegicus, UniProt P35739); conditions: PC12 cells, after NGF administration (Kaplan et al., 1991); cited from earlier work
T1 construct: tyrosine phosphorylation in response to NGF addition to PC12 cells; endogenous in cells; host or cells: PC12 cells

gp145^trkB = gp145^trkB tyrosine phosphorylation in trkB-expressing NIH 3T3 cells (pJM8 lines), immunoprecipitation and α-Ptyr Western; type: cell-based, rat; conditions: pJM8 trkB-expressing NIH 3T3 cells, 100 ng/ml factor, 5 min
Protocol: A 4.8 kb cDNA encompassing the coding domain of rat trkB (Middlemas et al., (1991)) was cloned into the pMEX plasmid (pJM8) downstream of the MSV promoter. NIH 3T3 cells were cotransfected with the pJM8 plasmid and a plasmid containing the neomycin phosphotransferase gene (L. F. Parada et al., Nature 312:649-651 (1984)), and G418-resistant colonies were selected. PC12 cells (Greene and Tischler, 1976) were grown in DMEM with 10% horse serum and 5% fetal calf serum. NIH 3T3 cells and the derivative cells lines were maintained in DMEM medium containing 10% calf serum. All cells were maintained in a humidified incubator at 37° C. in 5% CO2.
Approximately 10^7 cells were treated at 37° C. for 5 min with 100 ng/ml growth factors or at the concentrations and lengths of time noted in the text. NP-40 plate lysis and gp145^trkB immunoprecipitation with anti-serum 443 were performed as previously described (Kaplan et al., (1990), (1991)). The phosphotyrosine content was analyzed by Western transfer using monoclonal antibody 4G10 as previously described (Morrison et al., (1989)).
The product of the trk proto-oncogene (gp140^proto-trk) is tyrosine phosphorylated in response to NGF in PC12 cells, NGF-responsive neuroblastoma cells, heterologous fibroblasts and Xenopus oocytes (Kaplan et al., (1991); A. R. Nebreda et al., Science 252:558-560 (1991); Klein et al., (1991)). Next it was examined whether NGF elicited tyrosine phosphorylation of gp145^trkB in trkB-expressing NIH 3T3 cells. Cell line pJM8-3 was treated with high concentrations of NGF (100 ng/ml) for 5 minutes. The cells were lysed, immunoprecipitated with anti-trkB antiserum 443, transferred to nitrocellulose filters and probed with anti-phosphotyrosine (α-Ptyr) antibodies. As a negative control, untransfected NIH-3T3 cells were treated in parallel, while PC12 cells were used as a positive control for NGF responsiveness (Kaplan et al., (1991)).
BDNF and NT-3 are neurotrophic factors that display many functional and structural features that are reminiscent of NGF. The genes encoding BDNF and NT-3 have recently been cloned and used to express high levels of the biologically active factors in pure form (A. Rosenthal et al., Neuron 4:773 (1990)). It was tested whether these NGF-related neurotrophic factors would stimulate phosphorylation of the trkB glycoprotein by exposing the pJM-8 cell lines to 100 ng/ml of NGF, BDNF, or NT-3 (~4 nM) for 5 minutes. The cells were then lysed and the lysates incubated with a trkB anti-peptide antiserum (443) with or without excess peptide. After transfer to nitrocellulose filters, the trkB proteins were probed with an anti-phosphotyrosine (α-ptyr) monoclonal antibody (FIG. 10) (Kaplan et al. (1991)). […] Thus, both neurotrophic factors NT-3 and BDNF can elicit tyrosine phosphorylation of gp145^trkB in a manner similar to that observed for NGF stimulation of the trk receptor. Similar results have been obtained with NT-3 and BDNF in Rat2 cells expressing trkB.
Having detected gp145^trkB phosphorylation in response to BDNF and NT-3, it was next determined whether unrelated polypeptide growth factors were capable of eliciting a similar response. Platelet-derived growth factor (PDGF; 100 ng/ml), epidermal growth factor (EGF; 100 ng/ml), insulin (100 ng/ml), and basic fibroblast growth factor (bFGF; 100 ng/ml), were added independently to exponentially growing cultures of pJM8-3 cells.
The previous studies were done in the presence of high concentrations of neurotrophic factors. Dose response experiments were next performed to determine the range of concentrations at which phosphorylation of the trkB receptor was stimulated by NT-3 or BDNF. Cells were incubated with quantities of NT-3 or BDNF ranging from 0.1 ng/ml to 250 ng/ml and treated as described in FIG. 12. […]

T1 sequence (P35739 33-799): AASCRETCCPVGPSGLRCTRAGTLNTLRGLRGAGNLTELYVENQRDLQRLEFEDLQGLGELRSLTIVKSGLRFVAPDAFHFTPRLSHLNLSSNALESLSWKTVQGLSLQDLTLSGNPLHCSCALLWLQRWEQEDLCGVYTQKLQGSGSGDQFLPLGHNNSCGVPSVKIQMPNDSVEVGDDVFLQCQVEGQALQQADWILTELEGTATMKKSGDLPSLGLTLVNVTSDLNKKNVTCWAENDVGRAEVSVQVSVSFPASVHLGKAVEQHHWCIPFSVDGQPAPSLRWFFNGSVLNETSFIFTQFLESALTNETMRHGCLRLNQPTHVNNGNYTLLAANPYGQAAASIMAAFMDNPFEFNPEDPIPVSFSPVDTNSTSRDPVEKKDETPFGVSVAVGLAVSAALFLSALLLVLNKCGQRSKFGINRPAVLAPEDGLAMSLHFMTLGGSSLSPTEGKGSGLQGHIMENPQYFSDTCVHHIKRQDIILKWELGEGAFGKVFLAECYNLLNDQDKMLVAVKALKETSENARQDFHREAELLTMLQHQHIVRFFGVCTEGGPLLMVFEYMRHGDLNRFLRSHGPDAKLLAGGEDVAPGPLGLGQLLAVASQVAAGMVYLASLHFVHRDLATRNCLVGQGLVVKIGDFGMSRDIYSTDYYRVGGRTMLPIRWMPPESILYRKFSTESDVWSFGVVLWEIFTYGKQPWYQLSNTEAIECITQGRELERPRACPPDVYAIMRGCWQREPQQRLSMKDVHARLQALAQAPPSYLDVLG

NGF: neurotrophic polypeptide factor, nerve growth factor; ligand of trk proto-oncogene receptor
p140^prototrk tyrosine phosphorylation (p140^prototrk [1]): enhanced
p140^prototrk tyrosine phosphorylation (p140^prototrk [2]): enhanced
time to appearance of trk tyrosine phosphorylation (gp140^prototrk): 1 min
tyrosine phosphorylation of gp145^trkB (gp145^trkB): no increase in phosphorylation; also recorded: no detectable effect
